Experimental data taken from ChEMBL document CHEMBL1201862, “PubChem BioAssay data set” (2004).
The source made the active and inactive calls.

Key:
[1] = target: T1, Replicative DNA helicase DnaB (Mycobacterium tuberculosis, UniProt P9WMR3); assay: DnaB intein splicing inhibitors, dose response, biochemical, cell-free fluorescence (AID 449749); assay type: functional
T1 sequence (P9WMR3 whole entry): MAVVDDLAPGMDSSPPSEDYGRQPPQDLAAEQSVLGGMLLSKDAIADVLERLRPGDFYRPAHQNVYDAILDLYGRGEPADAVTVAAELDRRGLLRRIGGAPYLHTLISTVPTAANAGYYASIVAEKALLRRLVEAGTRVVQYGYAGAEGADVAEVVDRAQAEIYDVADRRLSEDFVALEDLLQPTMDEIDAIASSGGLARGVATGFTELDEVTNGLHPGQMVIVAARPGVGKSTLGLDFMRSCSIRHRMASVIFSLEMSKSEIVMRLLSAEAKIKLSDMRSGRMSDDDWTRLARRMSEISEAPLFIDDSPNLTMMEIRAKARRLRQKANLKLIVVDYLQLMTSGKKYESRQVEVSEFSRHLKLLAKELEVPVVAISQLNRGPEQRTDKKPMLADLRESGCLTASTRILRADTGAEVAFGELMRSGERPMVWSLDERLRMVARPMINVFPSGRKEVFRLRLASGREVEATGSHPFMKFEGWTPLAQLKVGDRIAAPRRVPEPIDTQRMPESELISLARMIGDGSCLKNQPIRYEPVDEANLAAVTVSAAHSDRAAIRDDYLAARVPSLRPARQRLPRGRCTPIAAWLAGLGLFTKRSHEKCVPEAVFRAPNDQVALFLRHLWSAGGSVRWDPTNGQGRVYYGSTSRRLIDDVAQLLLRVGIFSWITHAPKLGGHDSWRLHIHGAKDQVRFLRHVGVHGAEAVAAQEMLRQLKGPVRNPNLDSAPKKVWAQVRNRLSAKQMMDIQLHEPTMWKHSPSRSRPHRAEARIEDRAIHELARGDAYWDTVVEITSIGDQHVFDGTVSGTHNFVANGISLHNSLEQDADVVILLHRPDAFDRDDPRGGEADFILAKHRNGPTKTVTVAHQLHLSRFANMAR

[2] = reduction of Shn3 3'UTR-driven luciferase in osteoblasts – cell-based, Clone20 osteoblasts, firefly luciferase, cherry-picked, dose response (AID 624132); assay type: functional;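 also: firefly luciferase luminescence from reporter carrying the Shn3 3'UTR in osteoblasts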
[3] = non-specific 3'UTR reporter inhibition in Clone20-Shn3RL – cell-based, Renilla luciferase, cherry-picked, counter-screen for Shn3 inhibitor project, dose response (AID 624133); assay type: functional
[4] = target: ATP-binding cassette sub-family B member 6 (Homo sapiens, UniProt Q9NP58); assay: ABCB6 transporter inhibitors, porphyrin accumulation, dose response, flow cytometry, K562-ABCB6 cells, cherry pick 02 (AID 624487); assay type: functional; conditions: read-out: EC50_MICROM
[5] = target: T2, High affinity choline transporter 1 (Homo sapiens, UniProt Q9GZV3); assay: human choline transporter blockers, potency – cell-based, 5-point CRC, membrane potential dye, dose response (AID 504840); assay type: functional
T2 sequence (Q9GZV3 whole entry): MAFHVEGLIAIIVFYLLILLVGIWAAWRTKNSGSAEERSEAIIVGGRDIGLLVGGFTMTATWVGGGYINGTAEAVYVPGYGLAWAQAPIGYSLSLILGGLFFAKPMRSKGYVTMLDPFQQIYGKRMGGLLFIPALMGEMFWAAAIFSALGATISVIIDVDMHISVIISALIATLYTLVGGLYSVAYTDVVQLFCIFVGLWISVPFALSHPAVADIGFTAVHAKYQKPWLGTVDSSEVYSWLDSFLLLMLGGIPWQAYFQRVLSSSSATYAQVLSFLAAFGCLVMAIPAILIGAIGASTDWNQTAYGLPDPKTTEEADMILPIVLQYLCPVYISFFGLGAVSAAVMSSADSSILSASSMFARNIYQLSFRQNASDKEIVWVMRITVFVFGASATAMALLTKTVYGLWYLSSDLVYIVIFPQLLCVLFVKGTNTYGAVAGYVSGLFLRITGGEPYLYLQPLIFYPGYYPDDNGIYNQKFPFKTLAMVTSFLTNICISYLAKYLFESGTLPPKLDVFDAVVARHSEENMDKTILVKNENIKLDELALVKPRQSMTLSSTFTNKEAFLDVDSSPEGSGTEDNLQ

Vero = assay: viability of Vero cells under compound – cytotoxicity control for flavivirus capping enzyme inhibitors (AID 588742); assay type: functional; conditions: Chlorocebus sabaeus
[6] = target: T2, High affinity choline transporter 1; assay: human choline transporter blockers, potency – cell-based, 10-point CRC, membrane potential dye, dose response (AID 588401); assay type: functional;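 also: membrane potential dye fluorescence of choline-evoked depolarization via CHT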
Protein RecA = target: T3, Protein RecA (Mycobacterium tuberculosis, UniProt P9WHJ3); assay: Fluorescence Cell-Free Homogeneous Dose Retest to Identify Inhibitors of RecA-Intein Splicing Activity. [Related pubchem assays (depositor defined):AID2097, AID2223, AID489010, AID492950]; assay type: functional
T3 sequence (P9WHJ3 whole entry): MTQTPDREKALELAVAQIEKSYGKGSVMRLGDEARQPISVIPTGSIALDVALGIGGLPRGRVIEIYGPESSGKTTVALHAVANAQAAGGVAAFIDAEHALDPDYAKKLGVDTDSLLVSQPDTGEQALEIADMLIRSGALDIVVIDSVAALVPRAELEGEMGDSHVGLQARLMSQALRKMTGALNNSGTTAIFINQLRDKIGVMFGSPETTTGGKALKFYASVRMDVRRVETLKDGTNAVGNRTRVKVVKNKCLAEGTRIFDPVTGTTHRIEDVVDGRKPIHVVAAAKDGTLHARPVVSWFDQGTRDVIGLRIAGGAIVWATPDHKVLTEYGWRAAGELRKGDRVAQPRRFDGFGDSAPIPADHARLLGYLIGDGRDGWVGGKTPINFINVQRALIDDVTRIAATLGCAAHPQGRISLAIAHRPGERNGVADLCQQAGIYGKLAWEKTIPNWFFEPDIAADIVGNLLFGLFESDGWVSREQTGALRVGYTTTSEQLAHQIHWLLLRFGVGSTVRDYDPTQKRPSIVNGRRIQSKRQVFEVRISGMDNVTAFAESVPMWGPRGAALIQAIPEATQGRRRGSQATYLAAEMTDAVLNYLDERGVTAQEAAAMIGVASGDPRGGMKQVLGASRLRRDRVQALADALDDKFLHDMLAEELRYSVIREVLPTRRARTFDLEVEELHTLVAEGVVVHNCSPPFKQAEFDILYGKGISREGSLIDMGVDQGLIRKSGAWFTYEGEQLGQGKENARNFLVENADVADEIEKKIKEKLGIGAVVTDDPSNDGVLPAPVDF

[7] = target: Potassium voltage-gated channel subfamily KQT member 2 (Rattus norvegicus, UniProt O88943, W236L); assay: potentiation of rat KCNQ2 current – cell-based, automated electrophysiology, mechanism study for KCNQ2 potentiator project, dose response (AID 2603); assay type: functional
Genome polyprotein = Genome polyprotein (dengue virus type 2, UniProt P29990); assay: flavivirus cap methylation enzyme inhibition – biochemical, confirmation dose response, primary screen (AID 588689); assay type: functional
[8] = loss of viability in HepG2 cells – cell-based, CellTiter-Glo, cherry-picked, cytotoxicity control for Shn3 inhibitor project, dose response (AID 624134); assay type: functional
[9] = target: T4, Carboxy-terminal domain RNA polymerase II polypeptide A small phosphatase 1 (Homo sapiens, UniProt Q9GZU7); assay: CTDSP1 inhibitors, concentration-response, biochemical, absorbance readout, ultra-high-throughput screen actives (AID 540297); assay type: functional
T4 sequence (Q9GZU7 whole entry): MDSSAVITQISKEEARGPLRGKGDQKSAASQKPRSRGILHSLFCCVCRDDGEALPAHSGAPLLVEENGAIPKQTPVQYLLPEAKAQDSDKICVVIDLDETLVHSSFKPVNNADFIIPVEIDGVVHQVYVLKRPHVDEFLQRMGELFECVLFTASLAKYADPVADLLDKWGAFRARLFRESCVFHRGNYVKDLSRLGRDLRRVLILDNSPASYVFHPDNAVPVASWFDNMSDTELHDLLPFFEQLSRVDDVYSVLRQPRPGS

Estrogen receptor = target: T5, Estrogen receptor (Homo sapiens, UniProt P03372);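 also: potency for inhibiting coactivator peptide recruitment to the receptor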
T5 sequence (P03372 whole entry): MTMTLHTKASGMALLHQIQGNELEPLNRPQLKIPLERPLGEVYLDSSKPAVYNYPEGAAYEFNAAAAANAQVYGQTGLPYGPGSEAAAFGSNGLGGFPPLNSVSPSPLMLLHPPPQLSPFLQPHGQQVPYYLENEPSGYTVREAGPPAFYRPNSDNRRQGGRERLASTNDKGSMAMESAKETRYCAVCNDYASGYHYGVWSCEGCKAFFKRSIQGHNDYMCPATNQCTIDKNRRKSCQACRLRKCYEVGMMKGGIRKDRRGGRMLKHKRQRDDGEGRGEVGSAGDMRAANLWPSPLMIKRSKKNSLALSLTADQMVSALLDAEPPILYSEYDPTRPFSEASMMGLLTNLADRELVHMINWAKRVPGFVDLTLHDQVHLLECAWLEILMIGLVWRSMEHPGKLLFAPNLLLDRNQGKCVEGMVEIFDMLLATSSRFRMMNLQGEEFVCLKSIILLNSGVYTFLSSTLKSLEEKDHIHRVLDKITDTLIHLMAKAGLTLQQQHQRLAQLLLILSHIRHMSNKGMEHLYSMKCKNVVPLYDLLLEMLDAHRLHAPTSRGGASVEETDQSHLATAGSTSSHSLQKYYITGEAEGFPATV

Chain of Potassium voltage-gated channel subfamily KQT member 2 (O88943 whole entry W236L): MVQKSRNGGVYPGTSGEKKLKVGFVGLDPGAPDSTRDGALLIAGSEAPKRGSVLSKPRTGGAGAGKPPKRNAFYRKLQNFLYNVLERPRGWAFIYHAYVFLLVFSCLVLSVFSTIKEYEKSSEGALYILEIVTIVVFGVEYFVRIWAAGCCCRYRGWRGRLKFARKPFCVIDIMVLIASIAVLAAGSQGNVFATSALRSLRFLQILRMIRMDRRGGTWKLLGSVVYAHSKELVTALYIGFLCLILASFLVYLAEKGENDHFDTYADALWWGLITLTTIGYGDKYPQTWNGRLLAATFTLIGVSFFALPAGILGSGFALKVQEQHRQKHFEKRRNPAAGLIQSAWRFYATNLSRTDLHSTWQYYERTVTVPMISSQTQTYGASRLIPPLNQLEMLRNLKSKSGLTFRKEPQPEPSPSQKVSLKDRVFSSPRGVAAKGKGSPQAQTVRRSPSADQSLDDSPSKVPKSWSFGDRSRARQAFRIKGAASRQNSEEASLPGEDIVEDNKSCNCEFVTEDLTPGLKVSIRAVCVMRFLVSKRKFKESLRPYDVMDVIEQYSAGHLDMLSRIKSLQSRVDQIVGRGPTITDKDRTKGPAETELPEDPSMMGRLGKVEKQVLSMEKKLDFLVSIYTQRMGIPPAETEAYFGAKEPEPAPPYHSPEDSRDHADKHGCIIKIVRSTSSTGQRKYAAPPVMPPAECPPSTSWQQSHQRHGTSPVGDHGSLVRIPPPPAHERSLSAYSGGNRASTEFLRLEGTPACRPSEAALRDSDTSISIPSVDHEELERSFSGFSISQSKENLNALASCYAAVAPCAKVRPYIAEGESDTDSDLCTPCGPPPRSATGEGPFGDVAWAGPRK
Chain of Genome polyprotein (P29990 2492-3391 limits assumed): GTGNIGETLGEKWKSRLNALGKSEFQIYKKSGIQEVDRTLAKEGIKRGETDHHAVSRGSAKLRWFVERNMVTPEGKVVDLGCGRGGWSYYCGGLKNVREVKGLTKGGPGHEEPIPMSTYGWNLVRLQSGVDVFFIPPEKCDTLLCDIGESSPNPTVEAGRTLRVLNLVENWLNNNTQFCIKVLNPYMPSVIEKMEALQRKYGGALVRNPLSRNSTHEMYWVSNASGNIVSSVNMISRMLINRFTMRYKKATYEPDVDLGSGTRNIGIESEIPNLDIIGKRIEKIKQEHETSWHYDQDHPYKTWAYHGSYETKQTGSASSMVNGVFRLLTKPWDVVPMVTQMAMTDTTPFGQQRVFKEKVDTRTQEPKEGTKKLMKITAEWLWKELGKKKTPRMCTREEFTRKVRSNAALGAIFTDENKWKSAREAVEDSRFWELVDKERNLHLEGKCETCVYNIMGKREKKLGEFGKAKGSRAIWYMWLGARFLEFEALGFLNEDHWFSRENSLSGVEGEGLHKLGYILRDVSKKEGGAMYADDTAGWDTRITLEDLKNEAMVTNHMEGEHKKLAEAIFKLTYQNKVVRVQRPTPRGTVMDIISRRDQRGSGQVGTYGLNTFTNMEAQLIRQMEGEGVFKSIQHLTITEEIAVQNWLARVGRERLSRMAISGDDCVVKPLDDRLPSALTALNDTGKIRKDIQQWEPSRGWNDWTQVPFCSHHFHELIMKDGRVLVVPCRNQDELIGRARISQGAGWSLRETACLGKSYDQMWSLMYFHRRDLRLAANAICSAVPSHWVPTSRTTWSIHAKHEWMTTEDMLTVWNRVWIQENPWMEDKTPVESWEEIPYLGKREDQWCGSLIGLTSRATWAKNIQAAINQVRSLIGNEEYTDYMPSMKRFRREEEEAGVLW
Chain of ATP-binding cassette sub-family B member 6 (Q9NP58 whole entry): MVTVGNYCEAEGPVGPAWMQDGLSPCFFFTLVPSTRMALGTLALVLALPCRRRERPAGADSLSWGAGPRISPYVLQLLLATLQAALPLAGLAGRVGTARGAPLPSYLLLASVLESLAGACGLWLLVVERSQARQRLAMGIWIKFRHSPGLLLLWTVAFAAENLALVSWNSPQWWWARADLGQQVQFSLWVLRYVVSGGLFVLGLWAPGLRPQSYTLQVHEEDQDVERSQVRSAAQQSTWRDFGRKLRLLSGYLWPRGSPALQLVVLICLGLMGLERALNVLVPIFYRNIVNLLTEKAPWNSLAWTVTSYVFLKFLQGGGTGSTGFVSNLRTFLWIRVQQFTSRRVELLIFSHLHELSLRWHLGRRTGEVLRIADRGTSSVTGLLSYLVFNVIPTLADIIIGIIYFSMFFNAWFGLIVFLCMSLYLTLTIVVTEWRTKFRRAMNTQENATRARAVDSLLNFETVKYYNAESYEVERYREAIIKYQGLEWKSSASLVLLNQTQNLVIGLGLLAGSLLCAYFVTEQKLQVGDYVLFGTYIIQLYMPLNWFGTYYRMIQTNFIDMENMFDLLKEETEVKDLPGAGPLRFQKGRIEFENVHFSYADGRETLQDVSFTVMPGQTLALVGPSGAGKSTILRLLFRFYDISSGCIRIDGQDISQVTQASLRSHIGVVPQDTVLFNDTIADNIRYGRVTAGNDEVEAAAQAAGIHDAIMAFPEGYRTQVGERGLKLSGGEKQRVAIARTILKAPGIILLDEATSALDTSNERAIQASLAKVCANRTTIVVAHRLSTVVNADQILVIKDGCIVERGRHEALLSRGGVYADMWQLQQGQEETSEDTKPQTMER

Row | SMILES | AC50 [1] | AC50 [2] | AC50 [3] | EC50 [4] | IC50 [5] | CC50 (Vero) | IC50 [6] | EC50 (Protein RecA) | EC50 [7] | IC50 (Genome polyprotein) | AC50 [8] | IC50 [9] | IC50 (Estrogen receptor)
1 | CCc1nnc(NC(=O)c2nc(S(=O)(=O)Cc3ccc(C)cc3)ncc2Cl)s1 | 5.97 µM (active) | 3.01 µM (active) | 6.18 µM (active) | 29.5 µM (active) | 3.31 µM (active) | 28.9 µM (active) | 3.11 µM (active) | 4.11 µM (active) | 4.8 µM (active) | > 100 µM (active) | > 70 µM (inactive) |  | 
2 | CCCN(CCC)S(=O)(=O)c1ccc(NC(=O)Cc2cccs2)cc1 |  |  |  |  |  |  |  |  |  |  |  | 9.83 µM (active) | 16.7 µM (active)
